Experimental data published in PubChem BioAssay AID1259407 (Chemical Carcinogenesis Research Information System (CCRIS), 2018).
Active and inactive are the calls of the source. No rule for the calls is given here.

System: CCRIS mutagenicity, Ames/micronucleus/aberration tests
Assay: CCRIS mutagenicity studies
[1] = Test System: AMES SALMONELLA TYPHIMURIUM, Strain/Indicator: TA98, Metabolic Activation: NONE, Method: PREINCUBATION
[2] = Test System: AMES SALMONELLA TYPHIMURIUM, Strain/Indicator: TA100, Metabolic Activation: NONE, Method: PREINCUBATION
[3] = Test System: AMES SALMONELLA TYPHIMURIUM, Strain/Indicator: TA100, Metabolic Activation: RAT, LIVER, S-9, AROCLOR 1254, Method: STANDARD PLATE
[4] = Test System: AMES SALMONELLA TYPHIMURIUM, Strain/Indicator: TA98, Metabolic Activation: NONE, Method: STANDARD PLATE
[5] = Test System: AMES SALMONELLA TYPHIMURIUM, Strain/Indicator: TA100, Metabolic Activation: NONE, Method: STANDARD PLATE
[6] = Test System: AMES SALMONELLA TYPHIMURIUM, Strain/Indicator: TA1537, Metabolic Activation: NONE, Method: STANDARD PLATE

O[C@H]1c2ccccc2-c2cc3c(ccc4ccccc43)nc2[C@@H]1O
mutagenic call (Test System: AMES SALMONELLA TYPHIMURIUM, Strain/Indicator: TA98, Metabolic Activation: GUINEA PIG, LIVER, S-9, 3-METHYLCHOLANTHRENE, Method: STANDARD PLATE): inactive; negative
mutagenic call (Test System: AMES SALMONELLA TYPHIMURIUM, Strain/Indicator: TA100, Metabolic Activation: GUINEA PIG, LIVER, S-9, 3-METHYLCHOLANTHRENE, Method: STANDARD PLATE): inactive; negative
mutagenic call (Test System: CHINESE HAMSTER V-79, Strain/Indicator: V-79/6-THIOGUANINE, Metabolic Activation: GUINEA PIG, LIVER, S-9, 3-METHYLCHOLANTHRENE): active; positive

OC[C@H]1O[C@@H](OC2[C@@H](CO)O[C@H](O)[C@H](O)[C@H]2O)[C@H](O)[C@@H](O)C1O[C@@H]1O[C@H](CO)[C@@H](O)[C@H](O)[C@H]1O (some centres not stated)
mutagenic call (End Point: IN VIVO CHROMOSOMAL ABERRATIONS, Test System: BONE MARROW CELLS, Species: MOUSE, Strain/Sex: CD-1, MALE, Route: IP): inactive; negative
mutagenic call (End Point: IN VIVO CHROMOSOMAL ABERRATIONS, Test System: SPERMATOGONIAL CELLS, Species: MOUSE, Strain/Sex: CD-1, MALE, Route: IP): inactive; negative

Cc1[nH]ccc2c1[nH]c1cc(=O)ccc12
mutagenic call (Test System: AMES SALMONELLA TYPHIMURIUM, Strain/Indicator: TA97, Metabolic Activation: NONE, Method: PREINCUBATION): active; positive
mutagenic call (Test System: AMES SALMONELLA TYPHIMURIUM, Strain/Indicator: TA97, Metabolic Activation: RAT, LIVER, S-9, AROCLOR 1254, Method: PREINCUBATION): inactive; negative
mutagenic call [1]: inactive; negative
mutagenic call (Test System: AMES SALMONELLA TYPHIMURIUM, Strain/Indicator: TA98, Metabolic Activation: RAT, LIVER, S-9, AROCLOR 1254, Method: PREINCUBATION): inactive; negative
mutagenic call [2]: inactive; negative
mutagenic call (Test System: AMES SALMONELLA TYPHIMURIUM, Strain/Indicator: TA100, Metabolic Activation: RAT, LIVER, S-9, AROCLOR 1254, Method: PREINCUBATION): inactive; negative
mutagenic call (Test System: AMES SALMONELLA TYPHIMURIUM, Strain/Indicator: TA102, Metabolic Activation: NONE, Method: PREINCUBATION): inactive; negative
mutagenic call (Test System: AMES SALMONELLA TYPHIMURIUM, Strain/Indicator: TA102, Metabolic Activation: RAT, LIVER, S-9, AROCLOR 1254, Method: PREINCUBATION): inactive; negative

O=C(O)c1cc([N+](=O)[O-])cc([N+](=O)[O-])c1
mutagenic call [1]: active; positive
mutagenic call (Test System: AMES SALMONELLA TYPHIMURIUM, Strain/Indicator: TA98, Metabolic Activation: RAT, LIVER, S-9, KANECHLOR 500, Method: PREINCUBATION): active; positive
mutagenic call [2]: active; positive
mutagenic call (Test System: AMES SALMONELLA TYPHIMURIUM, Strain/Indicator: TA100, Metabolic Activation: RAT, LIVER, S-9, KANECHLOR 500, Method: PREINCUBATION): active; positive

Cc1ccc2c(=O)c3cccc4ccc1c2c43
mutagenic call [3]: active; positive

COC1=CC(=O)O[C@@H](CCc2ccccc2)C1
mutagenic call (Test System: Mouse lymphoma cells, Strain/Indicator: L5178Y ( tk+/tk-), Metabolic Activation: Human, Liver, S-9, Method: Suspension/plate): inactive; negative

C1=C2c3ccccc3CCC2CCC1 (configuration not stated)
mutagenic call (Test System: AMES SALMONELLA TYPHIMURIUM, Strain/Indicator: TA98, Metabolic Activation: RAT, LIVER, S-9, SODIUM PHENOBARBITAL AND BETA-NAPHTHOFLAVONE, Method: STANDARD PLATE): active; positive
mutagenic call (Test System: AMES SALMONELLA TYPHIMURIUM, Strain/Indicator: TA100, Metabolic Activation: RAT, LIVER, S-9, SODIUM PHEOBARBITAL AND BETA-NAPHTHOFLAVONE, Method: STANDARD PLATE): active; positive

O=[N+]([O-])c1ccc2ccc3cccc([N+](=O)[O-])c3c2c1
mutagenic call (Test System: AMES SALMONELLA TYPHIMURIUM, Strain/Indicator: TA98(1,8-DNP6), Metabolic Activation: NONE, Method: STANDARD PLATE): active; positive
mutagenic call (Test System: AMES SALMONELLA TYPHIMURIUM, Strain/Indicator: TA98(NR), Metabolic Activation: NONE, Method: STANDARD PLATE): active; positive
mutagenic call [4]: active; positive
mutagenic call [5]: active; positive
mutagenic call (Test System: AMES SALMONELLA TYPHIMURIUM, Strain/Indicator: YG1021, Metabolic Activation: NONE, Method: STANDARD PLATE): active; positive
mutagenic call (Test System: AMES SALMONELLA TYPHIMURIUM, Strain/Indicator: YG1024, Metabolic Activation: NONE, Method: STANDARD PLATE): active; positive
mutagenic call (Test System: AMES SALMONELLA TYPHIMURIUM, Strain/Indicator: YG1026, Metabolic Activation: NONE, Method: STANDARD PLATE): active; positive
mutagenic call (Test System: AMES SALMONELLA TYPHIMURIUM, Strain/Indicator: YG1029, Metabolic Activation: NONE, Method: STANDARD PLATE): active; positive

CN(N=O)C(=O)Oc1cccc2ccccc12
mutagenic call (End Point: IN VITRO CHROMOSOMAL ABERRATIONS, Test System: CHINESE HAMSTER V79-E CELLS, Metabolic Activation: NONE): active; positive
mutagenic call (Test System: E. COLI WP2, Strain/Indicator: WP2, Metabolic Activation: NONE, Method: STANDARD PLATE): active; positive

OC1C=Cc2cc3c(cc2C1O)-c1cccc2cccc-3c12 (configuration not stated)
mutagenic call [3]: active; positive

O=[N+]([O-])c1ccc(OCC2CO2)cc1 (configuration not stated)
mutagenic call [1]: inactive; negative
mutagenic call [2]: active; positive
mutagenic call [5]: active; positive
mutagenic call (Test System: AMES SALMONELLA TYPHIMURIUM, Strain/Indicator: TA104, Metabolic Activation: NONE, Method: STANDARD PLATE): active; positive
mutagenic call (Test System: AMES SALMONELLA TYPHIMURIUM, Strain/Indicator: TA4001, Metabolic Activation: NONE, Method: STANDARD PLATE): active; positive
mutagenic call (Test System: AMES SALMONELLA TYPHIMURIUM, Strain/Indicator: TA4006, Metabolic Activation: NONE, Method: STANDARD PLATE): active; positive

O=C(Nc1ccccc1)Nc1snc2ccccc12
mutagenic call [5]: inactive; negative
mutagenic call (Test System: AMES SALMONELLA TYPHIMURIUM, Strain/Indicator: TA100, Metabolic Activation: S-9, Method: STANDARD PLATE): inactive; negative
mutagenic call [6]: inactive; negative
mutagenic call (Test System: AMES SALMONELLA TYPHIMURIUM, Strain/Indicator: TA1537, Metabolic Activation: S-9, Method: STANDARD PLATE): inactive; negative

CCN(CCCl)CCCNc1c2ccc(Cl)cc2nc2ccc(OC)cc12
mutagenic call [4]: active; positive
mutagenic call [5]: active; positive
mutagenic call (Test System: AMES SALMONELLA TYPHIMURIUM, Strain/Indicator: TA1535, Metabolic Activation: NONE, Method: STANDARD PLATE): inactive; negative
mutagenic call (Test System: AMES SALMONELLA TYPHIMURIUM, Strain/Indicator: TA1536, Metabolic Activation: NONE, Method: STANDARD PLATE): active; positive
mutagenic call [6]: active; positive
mutagenic call (Test System: AMES SALMONELLA TYPHIMURIUM, Strain/Indicator: TA1538, Metabolic Activation: NONE, Method: STANDARD PLATE): active; positive
mutagenic call (Test System: CHINESE HAMSTER OVARY, Strain/Indicator: CHO-K1-BH4 (HGPRT)/6-THIOGUANINE, Metabolic Activation: NONE, Method: SUSPENSION/PLATE): active; positive
mutagenic call (Test System: CHINESE HAMSTER OVARY, Strain/Indicator: CHO-K1-BH4 (HGPRT), Metabolic Activation: NONE, Method: MONOLAYER ASSAY): active; positive
mutagenic call (Test System: CHINESE HAMSTER OVARY, Strain/Indicator: CHO-K1-BH4 (HGPRT), Metabolic Activation: NONE, Method: SUSPENSION/PLATE): active; positive
mutagenic call (Test System: CHINESE HAMSTER V-79, Strain/Indicator: V-79/6-THIOGUANINE, Metabolic Activation: NONE, Method: FLASK ASSAY): active; positive
mutagenic call (Test System: CHINESE HAMSTER V-79, Strain/Indicator: V-79/8-AZAGUANINE, Metabolic Activation: NONE, Method: STANDARD PLATE): active; positive
mutagenic call (Test System: CHO/HGPRT, Strain/Indicator: CHO-K1-BH4, Metabolic Activation: NONE, Method: STANDARD PLATE): active; positive
mutagenic call (Test System: MOUSE LYMPHOMA, Strain/Indicator: L5178Y (TK+/TK-), Metabolic Activation: NONE, Method: SUSPENSION/PLATE): active; positive
mutagenic call (Test System: Mouse lymphoma, Strain/Indicator: L5178Y (tk+/tk-), Metabolic Activation: None, Method: Suspension/plate): active; positive
mutagenic call (Test System: Mouse lymphoma, Strain/Indicator: L5178Y (tk+/tk-), Metabolic Activation: Rat, Liver, S-9, Aroclor 1254, Method: Suspension/plate): inconclusive (previous evaluation equivocal)
